Results published in patent US20060204993A1, “Methods and compositions for modulating CHK2 pathways and methods for screening for same” (priority 2005, published 2006).
Residues, ends and D or L forms follow the SMILES beside them. *: point of attachment. Cbz = O=C(OCc1ccccc1)*; CH2F = FC*

Experiments:
[1] = system: DLD1-Chk2 cells; assay: Apoptosis and mitosis markers (Annexin-V, Pancaspase, phospho-Histone H3) and Z-VAD rescue in tet-induced cells; type: cell-based, human; conditions: DLD1-tet-Chk2#17 cells, +tet six days
Method: FIG. 2A is a graph showing the DNA contents of cells as measured by flow cytometry (upper panel) and the percentages of Annexin-V-positive cells and Pancaspase-positive cells determined by flow cytometric analysis (bottom panels). FIG. 2B is a photograph of fluorescent microscopy showing DLD1-tet-Chk2# 17 cells cultured in the presence or absence of tetracycline following staining with DePsipher Dye (Trevigen) and monitoring the intensity of the monomer ([…]) and aggregates ([…]) of DePsipher. FIG. 2C is a photograph of immunoblots showing DLD1-tet-Chk2 #17 cell lysates following tetracycline treatment. Lysates were prepared and subjected to immunoblotting with the antibodies indicated on the left. FIG. 2D is a series of graphs of flow cytometric analysis showing the DNA content, caspase activity and percentages of DLD1-tet-Chk2#17 cells undergoing apoptosis following treated with Z-VAD- or mock-treated (None) and cultured in the presence (+tet) or absence (−tet) of tetracycline for six days.
To investigate the effect of Chk2 expression on cell cycle progression, the cell cycle profiles of DLD1-Chk2 clones (#17 and #22) were analyzed after Chk2 induction by addition of tetracycline. […]

[2] = system: DLD1-Chk2 clones (#17 and #22); assay: Cell cycle profile (DNA content by flow cytometry) after tetracycline induction of Chk2; type: cell-based, human

Compound | rescue of Chk2-induced cell death [1] | cell population with G2/M DNA content ([2]; uninduced 20%) | cell population with sub-G1 DNA content ([2]; uninduced ~4%) | cell population with S DNA content ([2]; uninduced ~25%) | cell population with G1 DNA content ([2]; uninduced ~52%)
CC(NC(=O)C(NC(=O)OCc1ccccc1)C(C)C)C(=O)NC(CC(=O)O)C(=O)CF (stereo not drawn) [Z-VAD] (Cbz-Val-Ala-Asp-CH2F; configuration not given here) | partially rescued | – | – | – | –
CN(C)[C@@H]1C(O)=C(C(N)=O)C(=O)[C@@]2(O)C(O)=C3C(=O)c4c(O)cccc4[C@@](C)(O)[C@H]3C[C@@H]12 [tetracycline] | – | 30-35% | ~40% | ~9% | ~25%
